PMC10100771, “A Novel CMY Variant Confers Transferable High-Level Resistance to Ceftazidime-Avibactam in Multidrug-Resistant Escherichia coli” (Microbiology Spectrum, 2023)
Converted amounts (≈) assume the structure as drawn. Read-outs that look alike come from different tables or passages of the source.

Legend:
CMY-172 = target: T1, CMY-172 (Klebsiella pneumoniae, UniProt Q48434, DEL310-312/N366I); assay: Ki by direct competition assay with nitrocefin, CMY-172; type: biochemical; details: competition with 100 μM nitrocefin, 2-min incubation, mean ± SD
T1 construct: were amplified without a signal peptide and cloned into the pET28a; His8 (N); made in house; host or cells: E. coli BL21(DE3)
Experimental: (§1) blaCMYs (including blaCMY-2, blaCMY-172, and blaCMY-178) were amplified without a signal peptide and cloned into the pET28a, which led to the introduction of an N-terminal His8-Tag.The recombinant plasmids were transformed into E. coli BL21(DE3) and selected using Sanger sequencing. Lysogenic broth containing 50 μg/mL kanamycin was inoculated with transformants and grown to reach an OD600 of 0.6. A final concentration of 1 mM isopropyl-β-D-thiogalactopyranoside (IPTG) was added into the resulting culture, which was shaken at 18°C overnight. The culture broth was centrifuged to harvest bacteria. The pellet was resuspended in lysis buffer (50 mM Tris-HCl and 300 mM NaCl (pH 7.5)) and disrupted using a JN-02C French press (JNBIO, Guangzhou, China) at 1,100 bar. Then, the cell debris was removed by centrifugation at 11,000 rpm for 40 min at 4°C. The supernatant was added to an Ni column, and the absorbed protein was eluted by the eluent buffer (lysis buffer with 300 mM imidazole).
(§2) Enzymatic activities were measured using a D8 UV-visible spectrophotometer (Rumqee, Shanghai, China) in phosphate-buffered saline (PBS; pH 7.2) at room temperature. Substrates tested included nitrocefin, ceftazidime, and avibactam. […] The initial reaction velocities (v) were measured and Ki values were calculated by fitting data into equation 1 with GraphPad Prism v9.0.0 ([37]). […]

CMY-178 = target: T2, CMY-178 (Klebsiella pneumoniae, UniProt Q48434, DEL310-312/N366I/N90T); assay: Ki by direct competition assay with nitrocefin, CMY-178; type: biochemical, Escherichia coli; details: for Ki: CMY-178, competition with 100 μM nitrocefin, 2-min incubation, mean ± SD; for Increase of Ki value of CMY-178 compared with CMY-172: CMY-178 vs CMY-172
T2 construct: were amplified without a signal peptide and cloned into the pET28a; His8 (N); made in house; host or cells: E. coli BL21(DE3)
Experimental: as §1
Enzymatic activities were measured using a D8 UV-visible spectrophotometer (Rumqee, Shanghai, China) in phosphate-buffered saline (PBS; pH 7.2) at room temperature. Substrates tested included nitrocefin, ceftazidime, and avibactam. The extinction coefficient and wavelength of nitrocefin are 17,400 M^−1 · cm^−1 and 482 nm, respectively. […] The initial reaction velocities (v) were measured and Ki values were calculated by fitting data into equation 1 with GraphPad Prism v9.0.0 ([37]). (1) v=Vmax[S]/[S]+Km NCF (1+[I]/Ki)

E. coli J53-AR13438 = assay: MIC by agar dilution, conjugant containing pAR13438_2; type: cell-based; details: Escherichia coli, J53AR13438, E. coli J53-AR13438 (blaCMY-178)
Experimental: (§3) Antimicrobial susceptibility testing was performed and interpreted according to the Clinical and Laboratory Standards Institute (CLSI) guidelines and breakpoints (M100, 31st edition) by the agar dilution method. E. coli ATCC 25922 and K. pneumoniae ATCC 700603 served as control strains.
(§4) Conjugation experiments were performed by filter mating using sodium-azide-resistant E. coli J53 as the recipient, as described previously. Transconjugants were selected with MH agar containing 100 μg/mL sodium azide and 4 μg/mL ceftazidime-avibactam; furthermore, transconjugants were named J53-AR13438 and J53-KPCZA02, respectively. We compared genomes of AR13438 and J53 to select a unique gene (gtrA) to J53. […] The primers used for PCR were gtrA-F, gtrA-R, CMY-F, and CMY-R (Table S1). The transfer frequencies were calculated as the number of transconjugants (CFU/mL) divided by the number of recipients (CFU/mL). Donors and recipients were mixed at 1:1 for the transfer frequency experiment. S1-PFGE and Southern blotting were performed to define the location of blaCMY-178 and confirm the transmission of the plasmid as described previously ([35]). The MIC profiles of transconjugants were also determined by the agar dilution method.

E. coli DH5α-pCR2.1 = assay: MIC by agar dilution, DH5α with blank vector pCR2.1; type: cell-based; details: Escherichia coli
Experimental: as §3
(§5) The antibiotics we used included meropenem (Hanhui Pharmaceutical Co., Ltd., China), imipenem (Merck Sharp & Dohme Corp., USA), cefepime (Jiangsu Hengrui Pharmaceutical Co., Ltd., China), piperacillin (Suzhou Erye Pharmaceutical Co., Ltd., China), ceftazidime (Guangdong Jincheng Jinsu Pharmaceutical Co., Ltd., China), tazobactam (Meilunbio, China), avibactam (MedChemExpress, USA), aztreonam (Sigma-Aldrich, USA), amikacin (Meilunbio), cefuroxime (Esseti Farmaceutici S.r.l., Italy), fosfomycin (Harbin Pharmaceutical Group Co., Ltd. China), levofloxacin (Daiichi Sankyo Company Limited, Beijing, China), and cefotaxime (North China Pharmaceutical Hebei Huamin Pharmaceutical Co., Ltd., China).
(§6) The blaCMY cloning was performed using a TA cloning kit (Invitrogen, Shanghai, China). The blaCMY-178 gene combined with its predicted promoter was amplified from isolate AR13438. Then, the blaCMY-178 gene was cloned into the linearized vector pCR2.1 using T4 DNA ligase (Invitrogen). The blaCMY-172 gene was cloned from KPCZA02 with the same method. The resulting plasmids were chemically transformed into E. coli DH5α. The positive transformants were identified by blue-white screening in MH agar containing 50 μg/mL kanamycin and were further confirmed by Sanger sequencing. The pCR2.1 blank vector was also transformed into E. coli DH5α as a control. The primers used for cloning were CMY-F and CMY-R (see Table S2 in the supplemental material). Relative CMY expression was measured by reverse transcription-quantitative PCR as described previously ([34]). Specific quantitative PCR (qPCR) primers (q-recA-F/R and q-CMY-F/R) were designed (Table S2).

E. coli J53-KPCZA02 = assay: MIC by agar dilution, conjugant containing pKPCZA02_4; type: cell-based; details: Escherichia coli, J53KPCZA02, E. coli J53-KPCZA02 (blaCMY-172)
Experimental: as §3, §4

CMY-2 = target: T3, CMY-2 (Klebsiella pneumoniae, UniProt Q48434); assay: Ki by direct competition assay with nitrocefin, CMY-2; type: biochemical
T3 construct: were amplified without a signal peptide and cloned into the pET28a; His8 (N); made in house; host or cells: E. coli BL21(DE3)
Experimental: as §1, §2

[1] = tested on: K. pneumoniae isolate KPCZA02; assay: microbe, parasite or virus in culture; type: cell-based; details: Klebsiella pneumoniae
Experimental: as §3

[2] = tested on: E. coli DH5α-pCR2.1-CMY-178; assay: MIC by agar dilution, transformant containing blaCMY-178; type: cell-based, Escherichia coli
Experimental: as §3, §5, §6

E. coli strain AR13438 = assay: MIC by agar dilution, clinical isolate AR13438; type: cell-based, Escherichia coli; details: Escherichia coli; AR13438, clinical E. coli isolate (blaCMY-178, blaTEM-1, blaCTX-M-27); agar dilution
Experimental: as §3, §5

[3] = tested on: E. coli DH5α-pCR2.1-CMY-2; assay: MIC by agar dilution, transformant containing blaCMY-2; type: cell-based; details: Escherichia coli
E. coli J53 = assay: MIC by agar dilution, recipient E. coli J53; type: cell-based; details: Escherichia coli
Experimental: as §3, §5
Conjugation experiments were performed by filter mating using sodium-azide-resistant E. coli J53 as the recipient, as described previously. Transconjugants were selected with MH agar containing 100 μg/mL sodium azide and 4 μg/mL ceftazidime-avibactam; furthermore, transconjugants were named J53-AR13438 and J53-KPCZA02, respectively. We compared genomes of AR13438 and J53 to select a unique gene (gtrA) to J53. The blaCMY-178-postive transconjugants were confirmed by PCR and MALDI-TOF MS (see Fig. S9 in the supplemental material). The primers used for PCR were gtrA-F, gtrA-R, CMY-F, and CMY-R (Table S1). The transfer frequencies were calculated as the number of transconjugants (CFU/mL) divided by the number of recipients (CFU/mL). Donors and recipients were mixed at 1:1 for the transfer frequency experiment. S1-PFGE and Southern blotting were performed to define the location of blaCMY-178 and confirm the transmission of the plasmid as described previously ([35]). The MIC profiles of transconjugants were also determined by the agar dilution method.

E. coli DH5α = assay: MIC by agar dilution, E. coli DH5α; type: cell-based; details: Escherichia coli
Experimental: as §3, §5

[4] = tested on: E. coli DH5α-pCR2.1-CMY-172; assay: MIC by agar dilution, transformant containing blaCMY-172; type: cell-based; details: Escherichia coli
Experimental: as §3, §5, §6

Row | SMILES | Ki (CMY-172) | Ki (CMY-178) | Increase of Ki value of CMY-178 compared with CMY-172 (CMY-178) | MIC (E. coli J53-AR13438) | MIC (E. coli DH5α-pCR2.1) | MIC (E. coli J53-KPCZA02) | Ki (CMY-2; CMY-2, competition with 100 μM nitrocefin, 2-min incubation, mean ± SD, read-out: Ki) | MIC [1] | MIC ([2]; Escherichia coli, E. coli DH5α-pCR2.1-CMY-178, agar dilution) | Increase of MIC by blaCMY-178 compared with blaCMY-172 ([2]; transformants in E. coli DH5α) | MIC (E. coli strain AR13438) | MIC [3] | MIC (E. coli J53) | MIC (E. coli DH5α) | MIC [4] | Ki (CMY-2)
1 | CC(C)(O/N=C(\C(=O)N[C@@H]1C(=O)N2C(C(=O)[O-])=C(C[n+]3ccccc3)CS[C@H]12)c1csc(N)n1)C(=O)O [CAZ, ceftazidime] | 1.06 nM | 9.27 nM | ~ 5 fold | 1020 µg/mL (≈ 1870 µM) | 0.25 µg/mL (≈ 0.457 µM) | 512 µg/mL (≈ 937 µM) | 32.1 nM | 2050 µg/mL (≈ 3750 µM) | > 2050 µg/mL | over 4 fold | 2050 µg/mL (≈ 3750 µM) | 256 µg/mL (≈ 468 µM) | 0.25 µg/mL (≈ 0.457 µM) | 0.25 µg/mL (≈ 0.457 µM) | 512 µg/mL (≈ 937 µM) | 
2 | C[C@]1(Cn2ccnn2)[C@H](C(=O)O)N2C(=O)C[C@H]2S1(=O)=O [TAZ, tazobactam] | 2120 ± 340 nM | 2490 ± 510 nM | less than 2 fold |  |  |  |  |  |  |  |  |  |  |  |  | 760 ± 70 nM
